Results as given in patent publication US9290488B2, “Azetidine-substituted quinoxalines as opioid receptor like-1 modulators” (priority 2011, dated 2016).
Like-named read-outs stand apart in the source and are kept apart here.

Experiments:
[1] = In vitro metabolic stability, rat liver microsomes; details: for Metabolic Stability (%) Rat: % of compound remaining after 30 min incubation at 37° C., 2 μM, 0.5 mg/mL rat liver microsomes
[2] = In vitro metabolic stability, human liver microsomes; details: % of compound remaining after 30 min incubation at 37° C., 2 μM, 0.5 mg/mL human liver microsomes
[3] = In vitro assay of free unbound compound (equilibrium dialysis of rat serum); details: for Free Unbound Drug Fraction (%): rat serum, 2 μg/mL, 24 h equilibrium dialysis at 37° C. against PBS
[4] = male, Crj:CD (SD), pH 7.4

SMILES: CC[C@@H]1C[C@@H]2C[C@H](C1)C[C@@H](N1[C@@H]3CCC[C@H]1C[C@@H](n1c(=O)c(N4CC[C@H]4C(=O)O)nc4ccccc41)C3)C2 [B20a(ii)]
- Metabolic Stability (%) Rat [1]: 84%
- Metabolic Stability (%) Human [2]: 70%
- Free Unbound Drug Fraction (%) [3]: 3.3%
- free unbound drug fraction, times greater than counterpart d=2 compound ([3]; ratio B20a(ii) / CC02, rat serum): over 2.7 times

SMILES: O=C(O)[C@@H]1CCN1c1nc2ccccc2n([C@H]2C[C@H]3COC[C@@H](C2)N3[C@H]2C[C@@H]3CCC[C@@H](C3)C2)c1=O [C2a(ii)]
- metabolic stability upon exposure to rat liver microsomes, times greater than counterpart d=2 compound [4]: 2.6 times
- Metabolic Stability (%) Rat [1]: 86%
- Metabolic Stability (%) Human [2]: 67%

SMILES: CC12C[C@H]3C[C@@H](N4[C@@H]5COC[C@H]4C[C@@H](n4c(=O)c(N6CC[C@H]6C(=O)O)nc6ccccc64)C5)C[C@@H]1C[C@@H]2C3 [C20a(ii)]
- Metabolic Stability (%) Rat [1]: 62%
- metabolic stability upon exposure to rat liver microsomes, times greater than counterpart d=2 compound ([1]; ratio d=1 compound / d=2 counterpart, rat liver microsomes): over 4.4 times
- Metabolic Stability (%) Human [2]: 6.5%

SMILES: O=C(O)[C@@H]1CCCN1c1nc2ccccc2n([C@H]2C[C@H]3CCC[C@@H](C2)N3[C@H]2C[C@@H]3CCC[C@@H](C3)C2)c1=O [CC01, reference compound]
- Metabolic Stability (%) Rat [1]: 100%

SMILES: CC12C[C@H]3C[C@@H](N4[C@@H]5CCC[C@H]4C[C@@H](n4c(=O)c(N6CCC[C@H]6C(=O)O)nc6ccccc64)C5)C[C@@H]1C[C@@H]2C3 [CC02, reference compound]
- Metabolic Stability (%) Rat [1]: 97%
- Metabolic Stability (%) Human [2]: 58%
- Free Unbound Drug Fraction (%) [3]: 1.2%

SMILES: O=C(O)[C@@H]1CCCN1c1nc2ccccc2n([C@H]2C[C@H]3COC[C@@H](C2)N3[C@H]2C[C@@H]3CCC[C@@H](CC3)C2)c1=O [CC03, reference compound]
- Metabolic Stability (%) Rat [1]: 33%
- Metabolic Stability (%) Human [2]: 60%

SMILES: CC12C[C@H]3C[C@@H](N4[C@@H]5COC[C@H]4C[C@@H](n4c(=O)c(N6CCC[C@H]6C(=O)O)nc6ccccc64)C5)C[C@@H]1C[C@@H]2C3 [CC04, reference compound]
- Metabolic Stability (%) Rat [1]: 14%
- Metabolic Stability (%) Human [2]: 21%
